Active and inactive are the calls of the source. The rule behind the calls is not given here.
What was measured:
[1] = Toxicity in female BALB/c nu-nu mouse xenografted with human HCT-116 cells assessed as histopathological changes in liver at 40 mg/kg, po administered once daily for 3 weeks by H and E staining based analysis; format: organism-based; settings: in vivo, 504 h
HCT-116 [2] = experiment: Induction of apoptosis in human HCT-116 cells assessed as increase in caspase-3 cleavage incubated for 48 hrs by Western blot analysis; format: functional, cell-based; settings: dose 100-400 nM
[3] = Half life in Sprague-Dawley rat at 30 mg/kg, po as submicron emulsion measured after 24 hrs by LC-MS/MS analysis; format: ADME, organism-based; settings: in vivo
HCT-116 [4] = experiment: Upregulation of Bax expression in human HCT-116 cells at 100 to 400 nM incubated for 48 hrs by Western blot analysis; format: functional, cell-based; settings: dose 100-400 nM
HCT-116 [5] = experiment: Downregulation of Bcl-2 level in human HCT-116 cells at 200 to 400 nM incubated for 48 hrs by Western blot analysis; format: functional, cell-based; settings: dose 200-400 nM
HCT-116 [6] = experiment: Downregulation of c-Myc mRNA level in human HCT-116 cells at 200 to 400 nM incubated for 48 hrs by qRT-PCR analysis; format: functional, cell-based; settings: dose 200-400 nM
[7] = Toxicity in female BALB/c nu-nu mouse xenografted with human HCT-116 cells assessed as histopathological changes in kidney at 40 mg/kg, po administered once daily for 3 weeks by H and E staining based analysis; format: organism-based; settings: in vivo, 504 h
HCT-116 [8] = experiment: Induction of cell senescence in human HCT-116 cells at 100 to 400 nM incubated for 48 hrs by beta-galactosidase staining based analysis; format: functional; settings: dose 100-400 nM
NCM460 = experiment: Cytotoxicity against human NCM460 cells assessed as cell viability incubated for 48 hrs by CCK8 assay; format: toxicity, cell-based; settings: ncm460, 48 h
A549 = experiment: Cytotoxicity against human A549 cells assessed as cell viability incubated for 48 hrs by CCK8 assay; format: functional, cell-based
PANC-1 = experiment: Cytotoxicity against human PANC-1 cells assessed as cell viability incubated for 48 hrs by CCK8 assay; format: functional, cell-based
[9] = Stability in human plasma assessed as half life at 100 uM measured up to 120 mins by LC-MS/MS analysis; format: ADME, cell-free
CDK1/Cyclin A = CDK1/Cyclin A (Homo sapiens, UniProt P06493); experiment: Inhibition of CDK1/cyclA2 (unknown origin) by ADP-Glo assay; format: protein-complex assay
Chain of CDK1/Cyclin A (P06493 whole entry): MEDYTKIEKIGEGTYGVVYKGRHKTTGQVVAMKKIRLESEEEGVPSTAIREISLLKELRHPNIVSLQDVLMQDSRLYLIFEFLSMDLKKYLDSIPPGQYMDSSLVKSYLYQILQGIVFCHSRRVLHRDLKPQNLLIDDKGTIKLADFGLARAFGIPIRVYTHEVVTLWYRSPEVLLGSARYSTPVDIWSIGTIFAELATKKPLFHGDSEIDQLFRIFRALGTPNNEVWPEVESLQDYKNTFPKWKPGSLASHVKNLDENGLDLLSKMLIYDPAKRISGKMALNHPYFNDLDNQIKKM
Chain of CDK1/Cyclin A (P20248 whole entry, further chain): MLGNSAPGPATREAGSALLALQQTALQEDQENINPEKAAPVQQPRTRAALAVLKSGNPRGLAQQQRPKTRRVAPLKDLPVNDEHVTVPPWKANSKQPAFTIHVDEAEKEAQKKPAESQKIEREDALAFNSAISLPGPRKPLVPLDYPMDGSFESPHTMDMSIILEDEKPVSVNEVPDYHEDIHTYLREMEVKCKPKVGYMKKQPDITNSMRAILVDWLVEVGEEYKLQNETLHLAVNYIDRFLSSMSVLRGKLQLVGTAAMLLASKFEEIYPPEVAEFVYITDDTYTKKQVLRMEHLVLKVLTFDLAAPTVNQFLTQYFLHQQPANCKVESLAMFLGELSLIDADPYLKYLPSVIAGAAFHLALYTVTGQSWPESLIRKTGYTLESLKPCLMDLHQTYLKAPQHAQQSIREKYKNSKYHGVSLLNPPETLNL

CDK6/cyclin D3 = CDK6/cyclin D3 (Homo sapiens, UniProt Q00534); experiment: Inhibition of CDK6/cycD3 (unknown origin) by ADP-Glo assay; format: protein-complex assay
Chain of CDK6/cyclin D3 (P30281 whole entry): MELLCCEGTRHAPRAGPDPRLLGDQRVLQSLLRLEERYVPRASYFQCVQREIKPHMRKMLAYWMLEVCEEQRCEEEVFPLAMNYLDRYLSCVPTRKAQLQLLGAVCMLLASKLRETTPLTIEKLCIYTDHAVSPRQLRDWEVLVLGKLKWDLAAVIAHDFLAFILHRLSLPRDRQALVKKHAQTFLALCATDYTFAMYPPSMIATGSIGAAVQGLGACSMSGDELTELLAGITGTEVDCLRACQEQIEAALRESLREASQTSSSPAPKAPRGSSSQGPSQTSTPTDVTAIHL
Chain of CDK6/cyclin D3 (Q00534 whole entry): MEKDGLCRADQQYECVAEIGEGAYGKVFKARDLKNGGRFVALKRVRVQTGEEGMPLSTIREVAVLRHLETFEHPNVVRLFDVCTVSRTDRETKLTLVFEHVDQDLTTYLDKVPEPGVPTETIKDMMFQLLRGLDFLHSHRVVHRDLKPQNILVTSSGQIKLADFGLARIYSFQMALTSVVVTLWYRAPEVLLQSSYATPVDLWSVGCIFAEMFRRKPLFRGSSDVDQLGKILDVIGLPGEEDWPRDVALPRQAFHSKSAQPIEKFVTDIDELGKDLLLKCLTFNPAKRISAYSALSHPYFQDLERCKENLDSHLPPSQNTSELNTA

HCT-116 [10] = experiment: Downregulation of Mcl-1 mRNA level in human HCT-116 cells at 200 to 400 nM incubated for 48 hrs by qRT-PCR analysis; format: functional, cell-based; settings: dose 200-400 nM
[11] = Volume of distribution in Sprague-Dawley rat at 30 mg/kg, po as submicron emulsion measured after 24 hrs by LC-MS/MS analysis; format: ADME, organism-based; settings: in vivo
[12] = Volume of distribution in Sprague-Dawley rat at 2 mg/kg, iv measured after 24 hrs by LC-MS/MS analysis; format: ADME, organism-based; settings: in vivo
[13] = Oral bioavailability in Sprague-Dawley rat at 30 mg/kg measured after 24 hrs by LC-MS/MS analysis; format: ADME, organism-based; settings: in vivo
CYP2D6 = CYP2D6 (Homo sapiens, UniProt P10635); experiment: Inhibition of CYP2D6 in human liver microsome at 10 uM pre-incubated with compound for 10 mins in presence of NADPH-regenerating system by LC-MS/MS analysis relative to control; format: ADME; settings: liver microsomes
Chain of CYP2D6 (P10635 whole entry): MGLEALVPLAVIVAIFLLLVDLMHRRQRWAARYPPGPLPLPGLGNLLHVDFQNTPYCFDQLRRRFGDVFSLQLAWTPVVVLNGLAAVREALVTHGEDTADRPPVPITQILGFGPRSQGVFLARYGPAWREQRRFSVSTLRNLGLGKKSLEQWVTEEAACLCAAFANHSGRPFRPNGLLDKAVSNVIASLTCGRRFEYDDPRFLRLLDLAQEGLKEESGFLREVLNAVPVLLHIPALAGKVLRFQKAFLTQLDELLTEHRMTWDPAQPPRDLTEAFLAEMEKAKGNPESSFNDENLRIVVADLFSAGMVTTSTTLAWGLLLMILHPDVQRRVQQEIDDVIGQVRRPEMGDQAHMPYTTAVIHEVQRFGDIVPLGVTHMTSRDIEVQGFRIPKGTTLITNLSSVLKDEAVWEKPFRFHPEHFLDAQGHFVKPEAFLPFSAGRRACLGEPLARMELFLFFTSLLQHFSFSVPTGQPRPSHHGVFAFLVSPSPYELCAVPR

[14] = Toxicity in female BALB/c nu-nu mouse xenografted with human HCT-116 cells assessed as histopathological changes in kidney at 20 mg/kg, po as submicron emulsion administered once daily for 3 weeks by H and E staining based analysis; format: organism-based; settings: in vivo, 504 h
[15] = AUC (0 to infinity) in Sprague-Dawley rat at 30 mg/kg, po as submicron emulsion measured after 24 hrs by LC-MS/MS analysis; format: ADME, organism-based; settings: in vivo
[16] = Oral bioavailability in Sprague-Dawley rat at 30 mg/kg as submicron emulsion measured after 24 hrs by LC-MS/MS analysis; format: ADME, organism-based; settings: in vivo

half-life [3]: 55.2 min | half-life at 100 µM [9]: > 289 min | IC50 (CDK1/Cyclin A): 3.87 µM | IC50 (CDK6/cyclin D3): 7.94 µM | Vd [11]: 6.52 L/kg | Vd [12]: 1.65 L/kg | bioavailability [13]: 14.7% | inhibition at 10 µM (CYP2D6): 42.6% | AUC [15]: 1611 ng·h/mL | bioavailability [16]: 26.4%
SMILES: CC(C)Oc1cc(F)ccc1-c1ccnc(NC(=O)Nc2cccc(C(=O)N3CCN(C)CC3)c2)c1
Activity [1]: Non-toxic | Activity (HCT-116 [2]): Dose-dependent-effect | Activity (HCT-116 [4]): Active | Activity (HCT-116 [5]): Active | Activity (HCT-116 [6]): Active | Activity [7]: Non-toxic | Activity (HCT-116 [8]): Active | Activity (NCM460): Toxic | Activity (A549): Active | Activity (PANC-1): Active | Activity (HCT-116 [10]): Active | Activity [14]: Non-toxic

— ChEMBL document CHEMBL6178014, “Discovery and Administration Optimization of Novel Selective CDK9 Inhibitor, 1-7a-B1, for Improved Pharmacokinetics and Antitumor Efficacy In Vivo” (J Med Chem, 2025)
